These results are taken from patent US9796711B2, “Substituted pyrazolo[3,4-b]pyridin-6-carboxylic acids and method of use” (AbbVie S.àr.l., priority 2015, dated 2017).

What is called EC50 is the concentration at which the effect is half-maximal.

For assay [1], the target named is T1, ΔF508-CFTR (Homo sapiens, UniProt P13569, DEL508-508).
T1 construct: host or cells: CFBE41o-, doxycycline-inducible
In words: CFTR cell surface levels using HRP-tagged ΔF508-CFTR expressing CFBE cells, in the presence of a co-corrector. The format is cell-based. The settings on record: HRP-tagged ΔF508-CFTR expressing CFBE cells, in the presence of 3 μM co-corrector; for EC50: read-out: EC50. The method, boiled down: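 Cells were seeded with 0.5 μg/mL doxycycline and held 68 h at 37 °C. Test compounds plus 3 μM co-corrector (final 0.1% DMSO) were then added for 20 h at 33 °C. Washed cells received HRP substrate, and luminescence was normalized between DMSO and 3 μM co-corrector controls.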

In assay [2] the target is T1, ΔF508-CFTR. In words: CFTR cell surface levels using HRP-tagged ΔF508-CFTR expressing CFBE cells, intrinsic corrector capacity. The format is cell-based. The settings on record: for EC50: read-out: EC50. The essentials: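 Here the cells express ΔF508-CFTR with horseradish peroxidase inserted in extracellular loop 4, so only rescued channel at the surface gives luminescent signal. Compounds act on their own, 20 h at the reduced temperature of 33 °C; values are percent activity relative to DMSO and a 3 μM corrector.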

The mark [3] stands for this setting: HRP-tagged ΔF508-CFTR CFBE41o- cells, compounds alone (intrinsic corrector capacity), 20 hours at 33° C., positive control 3 μM corrector.
[4] abbreviates: HRP-tagged ΔF508-CFTR CFBE41o- cells, compounds alone (intrinsic corrector capacity), 20 hours at 33° C.
The mark [5] stands for this setting: HRP-tagged ΔF508-CFTR expressing CFBE cells, intrinsic corrector capacity (no co-corrector), 33° C., 20 hours.

T1 sequence (P13569 with tags, fused parts or gaps DEL508-508): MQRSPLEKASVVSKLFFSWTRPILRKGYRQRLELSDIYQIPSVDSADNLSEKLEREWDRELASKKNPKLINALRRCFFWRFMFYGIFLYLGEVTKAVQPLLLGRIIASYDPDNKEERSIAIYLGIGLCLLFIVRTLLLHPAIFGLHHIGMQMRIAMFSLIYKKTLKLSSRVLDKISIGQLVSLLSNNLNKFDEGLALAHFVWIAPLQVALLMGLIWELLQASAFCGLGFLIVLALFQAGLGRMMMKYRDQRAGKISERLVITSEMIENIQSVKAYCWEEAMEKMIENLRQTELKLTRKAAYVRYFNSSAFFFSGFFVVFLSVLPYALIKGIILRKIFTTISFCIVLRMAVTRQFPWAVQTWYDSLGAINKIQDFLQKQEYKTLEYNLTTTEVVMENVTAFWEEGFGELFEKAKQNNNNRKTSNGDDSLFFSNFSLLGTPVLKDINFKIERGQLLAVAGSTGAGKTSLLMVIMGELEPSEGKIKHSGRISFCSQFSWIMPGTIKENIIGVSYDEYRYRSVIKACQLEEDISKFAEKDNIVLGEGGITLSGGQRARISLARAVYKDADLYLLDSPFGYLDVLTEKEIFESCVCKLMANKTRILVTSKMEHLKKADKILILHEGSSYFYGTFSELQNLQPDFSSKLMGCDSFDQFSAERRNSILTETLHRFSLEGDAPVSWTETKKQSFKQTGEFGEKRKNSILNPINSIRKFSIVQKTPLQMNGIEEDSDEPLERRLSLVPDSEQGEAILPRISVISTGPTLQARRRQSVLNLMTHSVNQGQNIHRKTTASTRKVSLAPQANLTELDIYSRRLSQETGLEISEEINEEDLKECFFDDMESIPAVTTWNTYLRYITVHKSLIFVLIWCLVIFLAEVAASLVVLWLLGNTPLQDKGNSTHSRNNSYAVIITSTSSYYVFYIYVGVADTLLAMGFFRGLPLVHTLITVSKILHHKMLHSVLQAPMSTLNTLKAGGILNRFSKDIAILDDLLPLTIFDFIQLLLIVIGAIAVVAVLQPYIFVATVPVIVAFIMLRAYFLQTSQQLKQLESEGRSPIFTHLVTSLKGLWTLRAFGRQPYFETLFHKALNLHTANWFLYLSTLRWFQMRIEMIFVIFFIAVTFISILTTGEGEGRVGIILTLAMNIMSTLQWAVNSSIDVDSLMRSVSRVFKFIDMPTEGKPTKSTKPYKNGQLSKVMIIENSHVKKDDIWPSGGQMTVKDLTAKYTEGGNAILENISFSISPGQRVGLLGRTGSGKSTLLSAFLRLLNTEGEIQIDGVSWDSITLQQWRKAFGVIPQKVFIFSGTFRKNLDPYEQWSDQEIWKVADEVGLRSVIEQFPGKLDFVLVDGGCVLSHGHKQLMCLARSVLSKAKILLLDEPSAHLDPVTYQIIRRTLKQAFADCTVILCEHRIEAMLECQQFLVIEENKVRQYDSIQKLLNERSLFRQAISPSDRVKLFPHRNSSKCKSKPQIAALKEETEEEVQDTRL

In the case of `O=C(O)c1cc(-c2ccc(N3CCOCC3)cc2)c2c(C3CCC3)nn(-c3cc(F)cc(F)c3)c2n1` [compound 353, 3-cyclobutyl-1-(3,5-difluorophenyl)-4-[4-(morpholin-4-yl)phenyl]-1H-pyrazolo[3,4-b]pyridine-6-carboxylic acid], the “% Activation” value was determined as 438.65% in assay [1] and 224.1% in assay [2] (setting [3]). Moreover, the EC50 in assay [1] worked out at 459 nM; in assay [2] (setting [4]), 506 nM.

As to `CN(C)c1ccc(-c2cc(C(=O)O)nc3c2c(C(C)(C)C)nn3C2CCCCC2)cc1` [compound 131, 3-tert-butyl-1-cyclohexyl-4-[4-(dimethylamino)phenyl]-1H-pyrazolo[3,4-b]pyridine-6-carboxylic acid], the entries for the “% Activation” value in assay [1] and in assay [2] (setting [3]) were 388.7% and 153.75%, respectively. Also, the EC50 in assay [1] came out at 620 nM; in assay [2] (setting [4]), 899 nM.

On to `N#CC1CN(C2CCN(c3cc(C(=O)O)nc4c3c(C3CCC3)nn4-c3ccc(F)cc3)CC2)C1` [compound 847, 4-[4-(3-cyanoazetidin-1-yl)piperidin-1-yl]-3-cyclobutyl-1-(4-fluorophenyl)-1H-pyrazolo[3,4-b]pyridine-6-carboxylic acid], for which, in assay [1], the “% Activation” value came to 503.8% and the EC50 was 286 nM. Besides, in assay [2] (setting [5]), the “% Activation” value amounted to 279.1% and the EC50 was determined as 539 nM.

`Cc1nn(-c2ccccc2)c2nc(C(=O)O)cc(O[C@H]3C[C@@H](N(C)C)C3)c12` [compound 340, 4-{[cis-3-(dimethylamino)cyclobutyl]oxy}-3-methyl-1-phenyl-1H-pyrazolo[3,4-b]pyridine-6-carboxylic acid]: the “% Activation” value in assay [1] is 146%; in assay [2] (setting [3]), 18.86%. The EC50 in assay [1] worked out at 4170 nM; in assay [2] (setting [4]), 7500 nM.

As to `O=C(O)c1cc(O[C@@H]2CCOC2)c2c(C3CCC3)nn(-c3ccccc3)c2n1` [compound 582, 3-cyclobutyl-4-{[(3R)-oxolan-3-yl]oxy}-1-phenyl-1H-pyrazolo[3,4-b]pyridine-6-carboxylic acid], the “% Activation” value in assay [1] came out at 307.5%; in assay [2] (setting [5]) it was 92.03%. The EC50 in assay [1] came to 614 nM; in assay [2] (setting [5]), 903 nM.

Regarding `CC(C)N1CCC2CN(c3cc(C(=O)O)nc4c3c(C3CCC3)nn4-c3ccc(F)cc3)CCC21` (stereo not shown) [compound 900, 3-cyclobutyl-1-(4-fluorophenyl)-4-[1-(propan-2-yl)octahydro-5H-pyrrolo[3,2-c]pyridin-5-yl]-1H-pyrazolo[3,4-b]pyridine-6-carboxylic acid], in assay [1], the “% Activation” value was found to be 389.73% and the EC50 was determined as 216 nM. Further, in assay [2] (setting [5]), the “% Activation” value was found to be 183.97% and the EC50 amounted to 433 nM.

On to `CO[C@@H]1CCC[C@@H](n2nc(C(C)C)c3c(-c4ccc(N5CCOCC5)cc4)cc(C(=O)O)nc32)C1` [compound 214, 1-[(1R,3R)-3-methoxycyclohexyl]-4-[4-(morpholin-4-yl)phenyl]-3-(propan-2-yl)-1H-pyrazolo[3,4-b]pyridine-6-carboxylic acid], for which the “% Activation” value in assay [1] worked out at 323%; in assay [2] (setting [3]), 154%. The EC50 turned out to be 609 nM in assay [1] and 820 nM in assay [2] (setting [4]).

For the molecule `O=C(O)c1cc(N2CCC(N3CCOCC3)CC2)c2c(C3CCC3)nn(-c3cccc(C(F)(F)F)c3)c2n1` [compound 826, 3-cyclobutyl-4-[4-(morpholin-4-yl)piperidin-1-yl]-1-[3-(trifluoromethyl)phenyl]-1H-pyrazolo[3,4-b]pyridine-6-carboxylic acid], in assay [1], the “% Activation” value stood at 528.15% and the EC50 is 102 nM. In assay [2] (setting [5]), the “% Activation” value is reported as 314.4% and the EC50 stood at 157 nM.

`CN(C)CCOCCOc1cc(C(=O)O)nc2c1c(C1CCC1)nn2-c1ccccc1` [compound 614, 3-cyclobutyl-4-{2-[2-(dimethylamino)ethoxy]ethoxy}-1-phenyl-1H-pyrazolo[3,4-b]pyridine-6-carboxylic acid]: in assay [1], the “% Activation” value is on record as 176.9% and the EC50 is 3330 nM. In addition, in assay [2] (setting [5]), the “% Activation” value was determined as 32.02% and the EC50 amounted to 3330 nM.

Consider `CC(C)N1CCN(c2ccc(-c3cc(C(=O)O)nc4c3c(C3CCC3)nn4C3CCCCC3)cn2)CC1` [compound 865, 3-cyclobutyl-1-cyclohexyl-4-{6-[4-(propan-2-yl)piperazin-1-yl]pyridin-3-yl}-1H-pyrazolo[3,4-b]pyridine-6-carboxylic acid], for which the “% Activation” value in assay [1] was found to be 306.8%; in assay [2] (setting [5]), 146.9%. Further, the EC50 in assay [1] came out at 1120 nM; in assay [2] (setting [5]) it was 439 nM.

Take `CN1CC[C@@H](Oc2cc(C(=O)O)nc3c2c(C2CCC2)nn3-c2ccccc2)C1` [compound 650, 3-cyclobutyl-4-{[(3R)-1-methylpyrrolidin-3-yl]oxy}-1-phenyl-1H-pyrazolo[3,4-b]pyridine-6-carboxylic acid]: the “% Activation” value in assay [1] turned out to be 193.6%; in assay [2] (setting [5]) it was 45.88%. The EC50 in assay [1] and in assay [2] (setting [5]) was 3330 nM throughout.

For the molecule `CN(C)CCC1CCN(c2cc(C(=O)O)nc3c2c(C2CCC2)nn3-c2ccccc2)CC1` [compound 447, 3-cyclobutyl-4-{4-[2-(dimethylamino)ethyl]piperidin-1-yl}-1-phenyl-1H-pyrazolo[3,4-b]pyridine-6-carboxylic acid], in assay [1], the “% Activation” value was 415.6% and the EC50 amounted to 724 nM. In addition, in assay [2] (setting [5]), the “% Activation” value was found to be 243.3% and the EC50 turned out to be 1120 nM.

In the case of `O=C(O)c1cc(N2CCC(CN3CCCC(F)(F)C3)CC2)c2c(C3CCC3)nn(-c3ccccc3)c2n1` [compound 830, 3-cyclobutyl-4-{4-[(3,3-difluoropiperidin-1-yl)methyl]piperidin-1-yl}-1-phenyl-1H-pyrazolo[3,4-b]pyridine-6-carboxylic acid], in assay [1], the “% Activation” value stood at 588.2% and the EC50 worked out at 63.2 nM. In addition, in assay [2] (setting [5]), the “% Activation” value is on record as 353.9% and the EC50 stood at 115 nM.

`O=C(O)c1cc(N2CCN(CC3CC3)CC2)c2c(C3CCC3)nn(-c3ccccc3)c2n1` [compound 449, 3-cyclobutyl-4-[4-(cyclopropylmethyl)piperazin-1-yl]-1-phenyl-1H-pyrazolo[3,4-b]pyridine-6-carboxylic acid]: the “% Activation” value in assay [1] worked out at 298.55%; in assay [2] (setting [5]) it was 139.3%. Moreover, the EC50 in assay [1] worked out at 918 nM; in assay [2] (setting [5]), 1350 nM.

On to `O=C(O)c1cc(N2CC3(CCCC3)C2)c2c(C3CCC3)nn(-c3ccccc3)c2n1` [compound 404, 4-(2-azaspiro[3.4]octan-2-yl)-3-cyclobutyl-1-phenyl-1H-pyrazolo[3,4-b]pyridine-6-carboxylic acid], for which, in assay [1], the “% Activation” value was determined as 275.95% and the EC50 turned out to be 849 nM. Besides, in assay [2] (setting [5]), the “% Activation” value was found to be 104.91% and the EC50 was 910 nM.

As for `O=C(O)c1cc(OCCCN2CCCCC2)c2c(C3CCC3)nn(-c3ccccc3)c2n1` [compound 642, 3-cyclobutyl-1-phenyl-4-[3-(piperidin-1-yl)propoxy]-1H-pyrazolo[3,4-b]pyridine-6-carboxylic acid], in assay [1], the “% Activation” value is recorded as 281.95% and the EC50 came to 2400 nM. In assay [2] (setting [5]), the “% Activation” value is on record as 125.9% and the EC50 worked out at 3330 nM.
